Like-named read-outs stand apart in the source and are kept apart here.
Assays:
Type in all cases: biochemical
[1] = target: T1, PI3K β (p110β/p85α) (Homo sapiens, UniProt P42338); assay: PI 3-Kinase (human) HTRF assay, PI3K β; conditions: read-out: PI3K β IC50
T1 construct: purchased Upstate / Millipore Corporation

[2] = target: T2, PI3K δ (Homo sapiens, UniProt O00329); assay: PI 3-Kinase (human) HTRF assay, PI3K δ; conditions: read-out: PI3K δ IC50
T2 construct: purchased Upstate / Millipore Corporation
T2 sequence (O00329 whole entry): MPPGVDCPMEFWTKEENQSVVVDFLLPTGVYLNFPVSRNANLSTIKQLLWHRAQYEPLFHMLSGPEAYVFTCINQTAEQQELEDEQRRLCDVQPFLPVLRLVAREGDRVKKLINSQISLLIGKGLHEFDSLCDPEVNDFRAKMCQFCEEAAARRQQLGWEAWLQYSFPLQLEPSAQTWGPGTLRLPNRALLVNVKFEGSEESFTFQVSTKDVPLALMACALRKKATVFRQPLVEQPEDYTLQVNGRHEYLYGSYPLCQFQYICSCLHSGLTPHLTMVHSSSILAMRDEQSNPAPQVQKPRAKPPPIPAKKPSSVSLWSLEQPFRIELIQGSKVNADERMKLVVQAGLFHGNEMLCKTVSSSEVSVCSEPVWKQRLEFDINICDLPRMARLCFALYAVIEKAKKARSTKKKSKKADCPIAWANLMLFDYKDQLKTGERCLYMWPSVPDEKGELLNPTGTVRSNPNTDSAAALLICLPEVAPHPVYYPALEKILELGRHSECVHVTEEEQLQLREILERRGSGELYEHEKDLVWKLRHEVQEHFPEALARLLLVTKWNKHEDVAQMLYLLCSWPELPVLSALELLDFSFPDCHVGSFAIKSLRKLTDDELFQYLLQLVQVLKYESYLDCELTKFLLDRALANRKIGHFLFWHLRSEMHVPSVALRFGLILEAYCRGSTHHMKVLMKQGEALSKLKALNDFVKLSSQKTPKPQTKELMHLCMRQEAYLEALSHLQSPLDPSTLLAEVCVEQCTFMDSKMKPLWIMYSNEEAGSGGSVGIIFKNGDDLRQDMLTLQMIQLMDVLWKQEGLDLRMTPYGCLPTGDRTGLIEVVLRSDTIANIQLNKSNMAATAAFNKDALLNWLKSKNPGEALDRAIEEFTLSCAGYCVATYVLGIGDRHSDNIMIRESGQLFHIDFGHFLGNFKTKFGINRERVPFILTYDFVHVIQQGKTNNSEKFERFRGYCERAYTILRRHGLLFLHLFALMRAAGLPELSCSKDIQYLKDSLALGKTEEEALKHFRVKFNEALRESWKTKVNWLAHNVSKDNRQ
T2 sequence (P27986 whole entry partner): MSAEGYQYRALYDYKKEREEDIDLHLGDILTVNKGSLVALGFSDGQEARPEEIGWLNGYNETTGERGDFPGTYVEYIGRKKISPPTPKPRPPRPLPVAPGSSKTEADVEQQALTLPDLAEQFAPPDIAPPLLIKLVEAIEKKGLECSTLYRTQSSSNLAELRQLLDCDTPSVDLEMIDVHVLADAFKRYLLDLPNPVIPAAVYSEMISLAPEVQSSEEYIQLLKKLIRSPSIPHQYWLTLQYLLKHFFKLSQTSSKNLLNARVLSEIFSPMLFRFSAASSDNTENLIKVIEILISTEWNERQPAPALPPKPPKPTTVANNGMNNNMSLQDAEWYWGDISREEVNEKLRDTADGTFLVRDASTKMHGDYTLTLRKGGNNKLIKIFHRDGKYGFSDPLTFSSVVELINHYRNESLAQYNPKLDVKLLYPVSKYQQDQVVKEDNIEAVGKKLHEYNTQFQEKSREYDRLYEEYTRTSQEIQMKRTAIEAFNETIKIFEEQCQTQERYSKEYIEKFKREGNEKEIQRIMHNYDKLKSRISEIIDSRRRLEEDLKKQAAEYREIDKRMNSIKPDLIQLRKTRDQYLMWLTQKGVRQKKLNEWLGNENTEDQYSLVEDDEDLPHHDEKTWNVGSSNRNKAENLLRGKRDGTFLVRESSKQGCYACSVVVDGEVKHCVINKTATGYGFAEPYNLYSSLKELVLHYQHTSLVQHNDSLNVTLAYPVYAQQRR

[3] = target: T3, PI3K α (p110α/p85α) (Homo sapiens, UniProt P42336); assay: PI 3-Kinase (human) HTRF assay, PI3K α; conditions: read-out: PI3K α IC50
T3 construct: purchased Upstate / Millipore Corporation
T3 sequence (P42336 whole entry): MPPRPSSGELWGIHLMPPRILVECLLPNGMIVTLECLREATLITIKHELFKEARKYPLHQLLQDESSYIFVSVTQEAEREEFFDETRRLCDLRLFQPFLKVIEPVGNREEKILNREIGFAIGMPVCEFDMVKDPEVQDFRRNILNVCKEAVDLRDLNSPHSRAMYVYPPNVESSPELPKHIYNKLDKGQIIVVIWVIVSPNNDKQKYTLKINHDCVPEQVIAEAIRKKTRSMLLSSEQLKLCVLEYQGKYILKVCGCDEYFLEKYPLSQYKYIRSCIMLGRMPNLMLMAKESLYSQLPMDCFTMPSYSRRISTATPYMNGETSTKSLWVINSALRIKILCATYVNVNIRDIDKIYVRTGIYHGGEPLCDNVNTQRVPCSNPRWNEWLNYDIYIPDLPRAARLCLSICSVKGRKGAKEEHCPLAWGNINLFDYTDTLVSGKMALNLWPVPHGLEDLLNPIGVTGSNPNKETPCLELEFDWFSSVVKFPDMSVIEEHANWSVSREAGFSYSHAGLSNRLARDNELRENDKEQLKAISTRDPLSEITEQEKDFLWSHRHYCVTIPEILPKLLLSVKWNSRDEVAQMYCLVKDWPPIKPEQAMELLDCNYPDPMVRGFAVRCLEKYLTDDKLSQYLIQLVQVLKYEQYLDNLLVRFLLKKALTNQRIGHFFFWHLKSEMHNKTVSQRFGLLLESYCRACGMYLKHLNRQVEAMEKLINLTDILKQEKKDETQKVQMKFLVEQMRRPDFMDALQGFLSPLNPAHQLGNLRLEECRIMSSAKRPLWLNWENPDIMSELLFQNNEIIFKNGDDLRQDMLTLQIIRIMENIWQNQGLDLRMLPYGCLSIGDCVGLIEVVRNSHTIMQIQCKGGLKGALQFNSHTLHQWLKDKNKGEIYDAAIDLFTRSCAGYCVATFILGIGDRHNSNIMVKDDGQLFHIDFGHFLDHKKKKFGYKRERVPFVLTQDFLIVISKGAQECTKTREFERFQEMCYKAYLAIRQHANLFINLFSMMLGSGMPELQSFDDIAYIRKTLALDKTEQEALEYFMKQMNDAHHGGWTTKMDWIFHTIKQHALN
T3 sequence (P27986 whole entry partner): as the sequence (P27986 whole entry partner) above

T1 sequence (P42338 whole entry): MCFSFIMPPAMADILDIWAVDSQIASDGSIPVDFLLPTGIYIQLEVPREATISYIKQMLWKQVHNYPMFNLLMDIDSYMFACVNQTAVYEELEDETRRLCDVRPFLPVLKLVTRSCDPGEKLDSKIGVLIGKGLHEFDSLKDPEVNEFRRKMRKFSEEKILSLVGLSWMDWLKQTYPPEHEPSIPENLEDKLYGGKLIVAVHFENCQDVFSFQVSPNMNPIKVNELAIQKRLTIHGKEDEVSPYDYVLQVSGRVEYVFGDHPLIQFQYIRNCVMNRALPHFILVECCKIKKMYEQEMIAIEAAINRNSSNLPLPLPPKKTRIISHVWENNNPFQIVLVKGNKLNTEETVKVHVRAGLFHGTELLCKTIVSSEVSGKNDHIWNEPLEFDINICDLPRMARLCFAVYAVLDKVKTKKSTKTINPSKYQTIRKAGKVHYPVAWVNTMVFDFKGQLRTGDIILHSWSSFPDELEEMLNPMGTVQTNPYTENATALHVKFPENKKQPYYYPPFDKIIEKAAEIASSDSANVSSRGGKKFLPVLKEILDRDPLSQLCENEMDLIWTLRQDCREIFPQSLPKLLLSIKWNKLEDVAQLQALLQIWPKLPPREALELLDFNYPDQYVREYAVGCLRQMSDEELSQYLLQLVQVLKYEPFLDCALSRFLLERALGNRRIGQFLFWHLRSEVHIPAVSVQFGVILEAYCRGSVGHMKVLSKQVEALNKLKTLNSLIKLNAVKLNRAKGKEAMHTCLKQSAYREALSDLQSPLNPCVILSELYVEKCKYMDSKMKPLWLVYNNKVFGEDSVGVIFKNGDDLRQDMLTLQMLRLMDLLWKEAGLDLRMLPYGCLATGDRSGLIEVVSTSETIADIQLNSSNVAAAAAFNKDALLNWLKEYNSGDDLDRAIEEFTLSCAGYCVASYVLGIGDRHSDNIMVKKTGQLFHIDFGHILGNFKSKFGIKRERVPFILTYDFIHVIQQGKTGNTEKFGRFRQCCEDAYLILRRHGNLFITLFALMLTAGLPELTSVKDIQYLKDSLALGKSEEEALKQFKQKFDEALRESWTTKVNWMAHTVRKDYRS
T1 sequence (P27986 whole entry partner): as the sequence (P27986 whole entry partner) above

Row | IC50 [1] [nM] | IC50 [3] [nM] | IC50 ([3]; Table 4 (PI3K α inhibitors)) [nM] | Compound | further results
1 | < 10000 | – | – | Nc1nc2cc(-c3ccc4ncc(C(=O)NCCOCCO)n4c3)ccc2o1 [Compound 550] | IC50 [2]: < 10000 nM
2 | < 10000 | < 100 | – | C[C@H]1CN(C2CN(C(=O)c3cnc4ccc(-c5ccc6oc(N)nc6c5)cn34)C2)CCN1C [Compound 512] | IC50 [2]: < 1000 nM
3 | – | < 100 | – | Nc1nc2cc(-c3ccc4ncc(C#CC5CC5)n4c3)ccc2o1 [Compound 39] | IC50 [2]: < 100 nM
4 | – | – | < 100 | CCOC(=O)N1CCN(c2cnc3ccc(-c4ccc5oc(N)nc5c4)nc3n2)CC1 [Compound 557] | IC50 ([1]; Table 4 (PI3K α inhibitors)): < 1000 nM; IC50 ([2]; Table 4 (PI3K α inhibitors)): < 1000 nM
5 | – | – | < 100 | Nc1nc2cc(-c3ccc4ncc(N5CC(N6CCN(C7CC7)CC6)C5)nc4n3)ccc2o1 [Compound 620] | –
6 | < 10000 | < 100 | – | CS(=O)(=O)CCN1CCN(C(=O)c2cnc3ccc(-c4ccc5oc(N)nc5c4)cn23)CC1 [Compound 198] | IC50 [2]: < 10000 nM
7 | > 10000 | < 100 | – | C[C@H]1CCCN1C(=O)c1cnc2ccc(-c3ccc4oc(N)nc4c3)cn12 [Compound 482] | –
8 | < 1000 | < 10000 | – | CC(Oc1nc(-c2ccc3oc(N)nc3c2)cnc1N)C(F)(F)F (stereo not shown) [Compound 239] | IC50 [2]: < 10000 nM
9 | < 1000 | < 100 | – | C[C@@H]1CN(c2cnc3ccc(-c4ccc5oc(N)nc5c4)cc3n2)CCN1 [Compound 179] | –
10 | – | – | < 100 | Nc1nc2cc(-c3ccc4ncc(-c5cccnc5)cc4n3)ccc2o1 [Compound 567] | –
11 | – | – | – | CC(C)(N)C(=O)N1CCN(c2ccc3ncc(-c4ccc5oc(N)nc5c4)cc3n2)CC1 [Compound 633] | IC50 ([1]; Table 4 (PI3K α inhibitors)): > 10000 nM; IC50 ([2]; Table 4 (PI3K α inhibitors)): > 10000 nM
12 | – | – | < 100 | C[C@@H]1CN(C2CN(c3cnc4ccc(-c5ccc6oc(N)nc6c5)nc4c3)C2)CCN1C [Compound 608] | IC50 ([2]; Table 4 (PI3K α inhibitors)): < 1000 nM
13 | – | – | < 1000 | Nc1nc2cc(-c3ccc4ncc(-c5cccnc5)nc4n3)ccc2o1 [Compound 554] | IC50 ([2]; Table 4 (PI3K α inhibitors)): > 10000 nM
14 | – | – | – | C[C@@H]1COCCN1C1CN(c2cnc3ccc(-c4ccc5oc(N)nc5c4)nc3n2)C1 [Compound 600] | IC50 ([1]; Table 4 (PI3K α inhibitors)): > 10000 nM; IC50 ([2]; Table 4 (PI3K α inhibitors)): > 10000 nM
15 | < 1000 | < 100 | – | CN(C)[C@H]1CCN(c2cnc3ccc(-c4ccc5oc(N)nc5c4)cc3n2)C1 [Compound 382] | –
16 | < 10000 | < 100 | – | Nc1nc2cc(-c3ccc4ncc(C(=O)N5CC[C@H](O)C5)n4c3)ccc2o1 [Compound 264] | –
17 | – | < 10000 | – | CN1CCN(c2cnc3ccc(-c4ccc5oc(N)nc5c4)cc3n2)C(=O)C1 [Compound 390] | –
18 | < 10000 | < 100 | – | Nc1nc2cc(-c3ccc4ncc(C(=O)N5CC[C@@H](O)C5)n4c3)ccc2o1 [Compound 265] | –
19 | – | – | < 100 | C[C@@H]1CN(C2CN(c3cnc4ccc(-c5ccc6oc(N)nc6c5)nc4n3)C2)CCN1C [Compound 576] | IC50 ([1]; Table 4 (PI3K α inhibitors)): > 10000 nM
20 | – | – | < 1000 | C[C@H]1CN(c2cnc3ccc(-c4ccc5oc(N)nc5c4)nc3n2)CCN1 [Compound 552] | IC50 ([1]; Table 4 (PI3K α inhibitors)): < 100 nM
21 | – | – | < 1000 | CN1CCN(c2cnc3ccc(-c4ccc5oc(N)nc5c4)nc3n2)CC1 [Compound 555] | IC50 ([1]; Table 4 (PI3K α inhibitors)): < 1000 nM
22 | – | < 100 | – | Nc1nc2cc(-c3ccc4ncc(-c5cccnc5)n4c3)ccc2o1 [Compound 37] | IC50 [2]: < 100 nM
23 | – | – | – | Nc1nc2cc(-c3cnc4ccc(N5CCOCC5)nc4c3)ccc2o1 [Compound 624] | IC50 ([1]; Table 4 (PI3K α inhibitors)): > 10000 nM; IC50 ([2]; Table 4 (PI3K α inhibitors)): > 10000 nM
24 | – | – | < 100 | NCC(=O)N1CCN(c2cnc3ccc(-c4ccc5oc(N)nc5c4)nc3n2)CC1 [Compound 584] | –
25 | – | – | < 100 | C[C@@H]1CN(c2cnc3ccc(-c4ccc5oc(N)nc5c4)nc3c2)CCN1 [Compound 599] | IC50 ([1]; Table 4 (PI3K α inhibitors)): < 1000 nM
26 | > 10000 | – | – | Cn1ncc2c(-c3ccc4ncc(C(=O)N5CCOCC5)n4c3)cncc21 [Compound 537] | IC50 [2]: > 10000 nM

Row | Compound | IC50 [1] [nM] | IC50 [3] [nM] | IC50 ([3]; Table 4 (PI3K α inhibitors)) [nM] | further results
27 | CC(=O)Nc1nc2ccc(-c3cc(F)c4oc(N)nc4c3)cc2s1 [Compound 434] | < 100 | < 100 | – | IC50 [2]: < 100 nM

Source: patent US20150087627A1, “COMBINATION OF KINASE INHIBITORS AND USES THEREOF” (Intellikine LLC, priority 2011, published 2015)
